Reference: ChEMBL document CHEMBL5233210, “Pyrazolone structural motif in medicinal chemistry: Retrospect and prospect” (Eur J Med Chem, 2020)
Converted amounts (≈) assume the structure as drawn. Values belong to the compound of their own block, whether it stands above or below them.

Legend:
Bacillus subtilis [1] = assay: Antibacterial activity against Bacillus subtilis assessed as diameter of inhibition zone at 100 ppm; assay type: functional; conditions: read-out: DIZ
Escherichia coli [2] = assay: Antibacterial activity against Escherichia coli assessed as diameter of inhibition zone at 100 ppm; assay type: functional; conditions: read-out: DIZ
Streptococcus pyogenes = assay: Antibacterial activity against Streptococcus pyogenes; assay type: functional
Escherichia coli [3] = assay: Antibacterial activity against Escherichia coli; assay type: functional
Candida albicans = assay: Antifungal activity against Candida albicans; assay type: functional
Aspergillus fumigatus = assay: Antifungal activity against Aspergillus fumigatus; assay type: functional
Pseudomonas aeruginosa = assay: Antibacterial activity against Pseudomonas aeruginosa; assay type: functional
Ehrlich [4] = assay: Cytotoxicity against mouse Ehrlich ascites cells assessed as dead cells at 25 ug/ml; assay type: functional; conditions: dose 25 µg/ml
Ehrlich [5] = assay: Cytotoxicity against mouse Ehrlich ascites cells assessed as dead cells at 100 ug/ml; assay type: functional; conditions: dose 100 µg/ml
Ehrlich [6] = assay: Cytotoxicity against mouse Ehrlich ascites cells assessed as dead cells at 500 ug/ml; assay type: functional; conditions: dose 500 µg/ml
Rattus norvegicus [7] = assay: Antiinflammatory activity against rat assessed as inhibition of carrageenan-induced paw edema relative to control; assay type: functional; parameters: concentration or dose not given beside the values
Ovis aries = species: Ovis aries; assay: Selectivity index, ratio of IC50 for ovine COX-1 to IC50 for ovine COX-2
Aspergillus niger = assay: Antifungal activity against Aspergillus niger; assay type: functional
Bacillus subtilis [8] = assay: Antibacterial activity against Bacillus subtilis; assay type: functional
[9] = Antioxidant activity assessed as DPPH radical scavenging activity; assay type: functional
MCF7 = assay: Cytotoxicity against human MCF7 cells; assay type: functional, cell-based
[10] = Antioxidant activity assessed as ABTS radical scavenging activity; assay type: functional
Staphylococcus aureus = assay: Antibacterial activity against Staphylococcus aureus; assay type: functional
Rattus norvegicus [11] = assay: Antiinflammatory activity against rat assessed as inhibition of carrageenan-induced paw edema; assay type: functional

SMILES: CCOC(=O)C1CCN(/C(Nc2ccccc2)=C2\C(=O)N(c3ccccc3)N=C2C)CC1
zone of inhibition at 100 µg/mL (Bacillus subtilis [1]): 36 mm
zone of inhibition at 100 µg/mL (Escherichia coli [2]): 40 mm

SMILES: CC(=O)OC1CC[C@@]2(C)C(C1)/C(=C1/C(=O)NN=C1N)C[C@H]1[C@@H]3CC[C@H]([C@H](C)CCCC(C)C)[C@@]3(C)CC[C@@H]12 (stereo partly specified)
MIC (Streptococcus pyogenes): 50 µg/mL (≈ 95.1 µM)
MIC (Escherichia coli [3]): 50 µg/mL (≈ 95.1 µM)
MIC (Candida albicans): 25 µg/mL (≈ 47.5 µM)
MIC (Aspergillus fumigatus): 50 µg/mL (≈ 95.1 µM)
MIC (Pseudomonas aeruginosa): 50 µg/mL (≈ 95.1 µM)

SMILES: CCOC(=O)c1c(N/N=C2/C(=O)NN=C2C)sc2c1CCCC2
Activity (Ehrlich [4]): 43%
Activity (Ehrlich [5]): 79.4%
Activity (Ehrlich [6]): 71%

SMILES: O=C1/C(=C2/CN(c3ccccc3)N=C2c2ccccc2)C(c2ccccc2)=NN1c1ccccc1
MIC (Aspergillus niger): 5.1 µg/mL (≈ 11.2 µM)
MIC (Escherichia coli [3]): 4.08 µg/mL (≈ 8.98 µM)
MIC (Bacillus subtilis [8]): 10 µg/mL (≈ 22 µM)

SMILES: CC1=NNC(=O)/C1=N/Nc1sc2c(c1C#N)CCCC2
Activity (Ehrlich [4]): 29.8%
Activity (Ehrlich [5]): 84%
Activity (Ehrlich [6]): 53.3%

SMILES: CC(C)CCC[C@@H](C)[C@H]1CC[C@H]2[C@@H]3C/C(=C4\C(=O)NN=C4N)C4CC(Cl)CC[C@]4(C)[C@H]3CC[C@]12C (stereo partly specified)
MIC (Streptococcus pyogenes): 50 µg/mL (≈ 99.6 µM)
MIC (Escherichia coli [3]): 100 µg/mL (≈ 199 µM)
MIC (Candida albicans): 50 µg/mL (≈ 99.6 µM)
MIC (Aspergillus fumigatus): 50 µg/mL (≈ 99.6 µM)
MIC (Pseudomonas aeruginosa): 50 µg/mL (≈ 99.6 µM)

SMILES: Cc1c(-n2cc(C#N)c(=O)n(-c3ccc(Br)cc3)c2=S)c(=O)n(-c2ccccc2)n1C
IC50 (MCF7): 43.4 µM

SMILES: Cc1c(-n2cc(C#N)c(=O)n(-c3ccccc3)c2=N)c(=O)n(-c2ccccc2)n1C
IC50 (MCF7): 54.2 µM

SMILES: CC1=NN(c2nc(-c3ccccc3)cs2)C(=O)C1C(=S)Nc1ccccc1 (stereo unspecified)
Activity [10]: 88.6%

SMILES: O=C1O[C@H]([C@@H](O)CO)C(O)=C1O
Activity [10]: 88.2%

SMILES: CCCOC(=O)c1cc(O)c(O)c(O)c1 [PROPYL GALLATE]
IC50 [9]: 30.3 µM

SMILES: COc1cc(-c2cc(C3C(=O)N(c4ccccc4)N=C3C)nc(N)n2)ccc1O (stereo unspecified)
Activity (Rattus norvegicus [7]): 61.23%

SMILES: Cc1c(-n2cc(C#N)c(=O)n(-c3ccc(I)cc3)c2=S)c(=O)n(-c2ccccc2)n1C
IC50 (MCF7): 30.7 µM

SMILES: CCOC(=O)c1c(N/N=C2/C(=O)NN=C2N)sc2c1CCCC2
Activity (Ehrlich [4]): 60%
Activity (Ehrlich [5]): 98.1%
Activity (Ehrlich [6]): 79%

SMILES: Cc1c(-n2cc(C#N)c(=O)n(-c3ccccc3)/c2=N\c2ccccc2)c(=O)n(-c2ccccc2)n1C
IC50 (MCF7): 45 µM

SMILES: CC1=NN(c2ccccc2)C(=O)C1c1cc(-c2ccc(N(C)C)cc2)nc(N)n1 (stereo unspecified)
Activity (Rattus norvegicus [7]): 62%

Further lines, with some results ahead:

Ratio IC50 (Ovis aries): 4.73
SMILES: O=C1CC(Nc2ccccc2NC(=S)NC2CCCCC2)=NN1
Activity (Rattus norvegicus [7]): 56%

IC50 [9]: 31.3 µM
SMILES: Cc1c(/N=C/c2ccccc2)c(=O)n(-c2ccccc2)n1C

MIC (Streptococcus pyogenes): 100 µg/mL (≈ 186 µM)
MIC (Aspergillus niger): > 1000 µg/mL
MIC (Escherichia coli [3]): 62.5 µg/mL (≈ 116 µM)
MIC (Candida albicans): 1000 µg/mL (≈ 1860 µM)
MIC (Bacillus subtilis [8]): 100 µg/mL (≈ 186 µM)
MIC (Pseudomonas aeruginosa): 200 µg/mL (≈ 371 µM)
MIC (Staphylococcus aureus): 100 µg/mL (≈ 186 µM)
SMILES: CCCC1=NN(c2c(F)c(F)cc(F)c2F)C(=O)/C1=C\c1cn(-c2ccccc2)nc1-c1ccc(Cl)cc1

MIC (Aspergillus niger): 5.8 µg/mL (≈ 16.3 µM)
MIC (Escherichia coli [3]): 125 µg/mL (≈ 352 µM)
MIC (Candida albicans): 11.6 µg/mL (≈ 32.6 µM)
SMILES: CC1=NN(C(=S)NN)C(=O)/C1=N/Nc1ccc(S(N)(=O)=O)cc1

MIC (Aspergillus niger): 6.8 µg/mL (≈ 15.8 µM)
MIC (Escherichia coli [3]): 12.7 µg/mL (≈ 29.5 µM)
MIC (Candida albicans): 6.18 µg/mL (≈ 14.4 µM)
MIC (Pseudomonas aeruginosa): 7.39 µg/mL (≈ 17.2 µM)
MIC (Staphylococcus aureus): 7.3 µg/mL (≈ 17 µM)
SMILES: Nc1cc(=O)n(C(=O)CN2N=C(C(F)(F)F)/C(=N/Nc3ccc(Cl)cc3)C2=O)[nH]1

IC50 [9]: 20.1 µM
SMILES: Cc1c(/N=C/c2ccc(O)cc2O)c(=O)n(-c2ccccc2)n1C

MIC (Aspergillus niger): 5.8 µg/mL (≈ 18.7 µM)
MIC (Escherichia coli [3]): 188 µg/mL (≈ 603 µM)
MIC (Candida albicans): 15.6 µg/mL (≈ 50.2 µM)
SMILES: CC1=NN(C(=S)NN)C(=O)/C1=N/Nc1ccc(Cl)cc1

Ratio IC50 (Ovis aries): 400
SMILES: Cc1[nH]n(-c2ccccc2)c(=O)c1CNC(=S)Nc1ccccc1
Activity (Rattus norvegicus [7]): 91%
ED50 (Rattus norvegicus [11]): 102 mg/kg

IC50 [9]: 17.1 µM
SMILES: Cc1c(/N=C/c2cc(O)ccc2O)c(=O)n(-c2ccccc2)n1C

MIC (Streptococcus pyogenes): 200 µg/mL (≈ 408 µM)
MIC (Aspergillus niger): 500 µg/mL (≈ 1020 µM)
MIC (Escherichia coli [3]): 125 µg/mL (≈ 255 µM)
MIC (Candida albicans): 1000 µg/mL (≈ 2040 µM)
MIC (Bacillus subtilis [8]): 250 µg/mL (≈ 509 µM)
MIC (Pseudomonas aeruginosa): 62.5 µg/mL (≈ 127 µM)
MIC (Staphylococcus aureus): 250 µg/mL (≈ 509 µM)
SMILES: O=C1/C(=C\c2coc3ccc(Cl)cc3c2=O)C(C(F)(F)F)=NN1c1c(F)c(F)cc(F)c1F
